The record followed here is patent publication US20200270216A1, “COMPOSITIONS AND METHODS FOR INHIBITING N-SMASE2” (The Regents of the University of California, priority 2017, published 2020).

For one data set, the system named is Thy1-aSyn mice. As to the kind of experiment: Initial efficacy in Thy1-aSyn mice, aSyn immunofluorescence in substantia nigra. The settings on record: Thy-1 aSyn mice, 100 mg/kg/day oral, 5 weeks. Format: in vivo. On the procedure: Mice overexpressing human wild-type a-synuclein under control of the Thy-1 promoter (Thy1-aSyn mice) and control C57B1/6 mice were housed under a 12-hour light/dark cycle and had access to standard chow ad libitum. […] Two hours after the last dose, mice were euthanized by ketamine/xylazine over-anesthesia followed by cardiac puncture and saline transcardial perfusion. Brain tissue from individual mice were dissected.
All staining procedures and data collection were performed by investigators blinded to treatment. Double-immunofluorescence for Clone 42 Anti-aSyn/TH in SN (substantia nigra). Analysis of a-synuclein and tyrosine hydroxylase (TH, the marker of dopaminergic neurons) levels was performed in serially sectioned, free-floating vibratome sections. […]
For the quantification of aSyn and TH fluorescent immunolabeling images of immunofluorescence-labeled sections were acquired using an Agilent (Santa Clara, Calif.) microarray scanner equipped with a krypton/argon laser (647 nm) at 10 μm resolution with the photomultiplier tube set at 5% for aSyn and 10% for TH. Immunofluorescence intensity was measured using ImageJ in the appropriate region of interest. TH staining was quantified in the SN pars compact and SN pars reticulate. […]

A short description of data set [1]: Pharmacokinetic / brain permeability study, LC-MS/MS of brain and plasma. The note with it: C57BL/6J, mouse, mice, 100 mg/kg oral gavage. Format: in vivo, C57BL6 mice. As to the method: (§1) Brain permeability and target engagement studies were conducted in C57BL/6J mice. […] Drug level evaluation in brain and plasma samples was performed by LC-MS/MS analysis. Brain tissue was homogenized and nSMase2 activity measured as described above.

For the next data set, the target named is T1, nSMase2 (Mus musculus, UniProt Q9JJY3).
T1 construct: from tissue; host or cells: mouse brain (cortical homogenate)
T1 sequence (Q9JJY3 1-655): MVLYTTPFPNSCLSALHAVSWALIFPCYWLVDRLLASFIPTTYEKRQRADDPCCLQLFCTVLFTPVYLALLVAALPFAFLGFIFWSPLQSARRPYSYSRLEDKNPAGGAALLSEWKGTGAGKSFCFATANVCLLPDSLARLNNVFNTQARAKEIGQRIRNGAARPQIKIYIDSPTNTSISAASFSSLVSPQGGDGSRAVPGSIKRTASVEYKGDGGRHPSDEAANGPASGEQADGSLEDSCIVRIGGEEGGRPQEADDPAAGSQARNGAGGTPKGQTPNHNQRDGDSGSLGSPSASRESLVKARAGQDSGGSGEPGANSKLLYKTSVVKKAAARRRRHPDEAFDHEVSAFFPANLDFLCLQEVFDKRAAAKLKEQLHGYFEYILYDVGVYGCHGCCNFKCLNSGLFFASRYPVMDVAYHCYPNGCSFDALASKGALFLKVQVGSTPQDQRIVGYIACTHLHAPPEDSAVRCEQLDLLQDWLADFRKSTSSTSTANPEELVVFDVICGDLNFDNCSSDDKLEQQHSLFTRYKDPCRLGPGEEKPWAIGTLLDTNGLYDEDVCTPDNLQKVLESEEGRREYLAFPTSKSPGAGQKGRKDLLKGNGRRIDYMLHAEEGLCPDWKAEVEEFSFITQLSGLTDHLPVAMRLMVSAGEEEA
As to the kind of experiment: Target engagement: nSMase activity in brain homogenates of treated mice. In kind it is in vivo, C57BL6 mice. The note with it: 100 mg/kg oral gavage, 4 hours. As to the method: Alternatively, mice were treated with the compounds by a parental route and after euthanization the brain is removed and homogenized using 100 mM Tris-HCl pH 7.5, 100 mM sucrose, 100 μM PMSF, 1× protease inhibitor cocktail, and diluted to 2× in reaction buffer prior to the assay and nSMase2 activity is measured. The reaction was started by adding 10 μL of the working solution (100 μM Amplex Red reagent containing 2 U/mL HRP, 0.2 U/mL choline oxidase, 8 U/mL of alkaline phosphatase, and 0.5 mM sphingomyelin) and the progression of the reaction was monitored at 540/590 nm (Ex/Em) for 2 h at 37° C. The activity of nSMase2 at 2 hrs was plotted as percentage of control using PrismGraphPad.
as §1

Where two headings read alike, the source gives them in different places.

Turning to `O=c1[nH]c(=S)[nH]c(-c2ccccc2)c1Cc1c(O)ccc2ccccc12` [cambinol], the “aSyn levels in the substantia nigra (SN)” value with Thy1-aSyn mice is recorded as “trend to decrease”. For the same molecule, the concentration at 4 h is 135 ± 60.9 ng/g in data set [1] (brain, read-out: level in brain) and 8150 ± 2450 ng/mL in data set [1] (plasma, read-out: level in plasma). Besides, the “inhibition (decrease) of nSMase activity in brain/cortical homogenates vs vehicle” value against nSMase2 is on record as 26.8%.
